Assay: mn = molality of the nth substance listed, in mol/kg
Settings: 101 kPa, Liquid

N.N.O=S(=O)(O)O [ammonium sulfate] + O
m1 = 4.655
Settings | mass density [kg/m3] | viscosity [mPa·s]
293.15 K | 1217.66 | –
298.15 K | 1215.79 | 2.114
303.15 K | 1213.89 | 1.944
308.15 K | 1211.94 | 1.785
313.15 K | 1209.97 | –

NO.O=S(=O)(O)O [hydroxylammonium hydrogen sulfate] + O
Settings | mass density, 283.15 K [kg/m3] | mass density, 288.15 K [kg/m3] | mass density, 293.15 K [kg/m3] | mass density, 298.15 K [kg/m3] | mass density, 303.15 K [kg/m3] | mass density, 308.15 K [kg/m3] | mass density, 313.15 K [kg/m3] | viscosity, 298.15 K [mPa·s] | viscosity, 303.15 K [mPa·s] | viscosity, 308.15 K [mPa·s]
m1 = 0.0075 | 1000.57 | 999.95 | 999.03 | 997.89 | 996.46 | 994.84 | 993 | – | – | –
m1 = 0.0204 | – | – | – | – | – | – | – | 0.897 | 0.806 | 0.727
m1 = 0.038 | 1003.84 | 1003.18 | 1002.23 | 1001.03 | 999.59 | 997.95 | 996.09 | – | – | –
m1 = 0.0473 | – | – | – | – | – | – | – | 0.909 | 0.814 | 0.736
m1 = 0.0702 | 1007.27 | 1006.56 | 1005.58 | 1004.34 | 1002.88 | 1001.17 | 999.12 | 0.914 | 0.821 | 0.741
m1 = 0.2199 | 1022.47 | 1021.57 | 1020.43 | 1019.05 | 1017.48 | 1015.7 | 1013.04 | – | – | –
m1 = 0.2315 | – | – | – | – | – | – | – | 0.968 | 0.869 | 0.787
m1 = 0.3709 | 1036.87 | 1035.81 | 1034.52 | 1033.05 | 1031.38 | 1029.51 | 1027.24 | 1.019 | 0.912 | 0.823
m1 = 0.4314 | 1042.64 | 1041.22 | 1039.97 | 1038.36 | 1036.73 | 1034.77 | 1032.85 | 1.035 | 0.927 | 0.838
m1 = 0.5334 | 1051.59 | 1050.39 | 1048.98 | 1047.39 | 1045.61 | 1043.69 | 1041.6 | 1.069 | 0.961 | 0.867
m1 = 0.8069 | 1075.32 | 1073.9 | 1071.96 | 1070.2 | 1068.3 | 1066.3 | 1064.15 | 1.167 | 1.053 | 0.95
m1 = 0.9684 | 1088.31 | 1086.8 | 1085.12 | 1083.29 | 1081.32 | 1079.23 | 1076.98 | – | – | –
m1 = 1.044 | – | – | – | – | – | – | – | 1.256 | 1.128 | 1.02
m1 = 1.165 | 1103.23 | 1101.58 | 1099.81 | 1097.89 | 1095.85 | 1093.7 | 1091.42 | – | – | –
m1 = 1.324 | – | – | – | – | – | – | – | 1.369 | 1.237 | 1.112
m1 = 1.478 | 1126.68 | 1124.91 | 1123 | 1120.96 | 1118.82 | 1116.5 | 1113.63 | – | – | –
m1 = 1.589 | – | – | – | – | – | – | – | 1.483 | 1.333 | 1.201
m1 = 1.851 | 1151.94 | 1149.99 | 1147.92 | 1145.49 | 1142.34 | 1141.16 | 1138.36 | – | – | –
m1 = 1.915 | – | – | – | – | – | – | – | 1.631 | 1.463 | 1.319
m1 = 2.088 | – | – | – | – | – | – | – | 1.732 | 1.542 | 1.386
m1 = 2.461 | 1188.98 | 1186.87 | 1184.69 | 1182.41 | 1180.07 | 1177.64 | 1175.14 | – | – | –
m1 = 2.847 | – | – | – | – | – | – | – | 2.123 | 1.887 | 1.702
m1 = 2.998 | 1218.05 | 1215.84 | 1213.55 | 1211.21 | 1208.79 | 1206.32 | 1203.99 | – | – | –
